Laboratory results taken from patent publication US7776557B2, “Method for monitoring tocolytic treatment” (Diagnostic Technologies Ltd., priority 2006, dated 2010).

System: PP13
Assay: PP13 level in maternal venous serum of pregnant women under tocolytic treatment, solid-phase sandwich ELISA
Format: in vivo, human
Conditions: Example V: repeated administrations, compared with normal
Procedure: In all experiments, PP13 was measured (blinded to pregnancy outcome) in maternal venous serum by solid-phase sandwich ELISA assay. PP13 level was calibrated according to standard curves prepared from calibrated standards of recombinant PP13. Concentrations are given in pg PP13/ml serum.
This clinical study was approved by the medical center internal review ethical committee, and all women enrolled in the study provided informed consent to allow the use of a small volume of their blood to determine the level of PP13.

COC(=O)C1=C(C)NC(C)=C(C(=O)OC)C1c1ccccc1[N+](=O)[O-] [nifedipine]
area of elevated PP13 level above normal: 5.8 times
